Data published in US20100137449A1, “SUBSTITUTED 1,3-CYCLOPENTADIONE MULTI-TARGET PROTEIN KINASE MODULATORS OF CANCER, ANGIOGENESIS AND THE INFLAMMATORY PATHWAYS ASSOCIATED THEREWITH” (METAPROTEOMICS, LLC, priority 2007, published 2010).

Legend:
Experiment in all cases: KinaseProfiler Assay
Abl(m) = Abl(m) (Mus musculus, UniProt P00520)
CDK3/cyclinE(h) = CDK3/cyclinE(h) (Homo sapiens, UniProt Q00526)
cKit(V560G)(h) = cKit(V560G)(h) (Homo sapiens, UniProt P10721, V560G)
FGFR2(N549H)(h) = FGFR2(N549H)(h) (Homo sapiens, UniProt P21802, N549H)
Hck(h) = Hck(h) (Homo sapiens, UniProt P08631)
MKK4(m) = molecular target: T1, MKK4(m) (Mus musculus, UniProt P47809)
T1 sequence (P47809 1-397): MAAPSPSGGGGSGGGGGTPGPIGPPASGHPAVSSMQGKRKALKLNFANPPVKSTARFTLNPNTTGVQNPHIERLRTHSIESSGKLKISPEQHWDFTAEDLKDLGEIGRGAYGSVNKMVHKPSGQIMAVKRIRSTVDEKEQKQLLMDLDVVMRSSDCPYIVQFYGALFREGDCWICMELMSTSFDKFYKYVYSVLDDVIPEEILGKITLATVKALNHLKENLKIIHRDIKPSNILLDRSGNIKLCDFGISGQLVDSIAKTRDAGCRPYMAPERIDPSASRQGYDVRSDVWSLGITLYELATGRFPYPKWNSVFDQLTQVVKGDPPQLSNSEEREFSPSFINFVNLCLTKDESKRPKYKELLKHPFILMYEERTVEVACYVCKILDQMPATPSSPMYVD

MRCKβ(h) = MRCKβ(h) (Homo sapiens, UniProt Q9Y5S2)
NEK2(h) = molecular target: T2, NEK2(h) (Homo sapiens, UniProt P51955)
T2 sequence (P51955 1-445): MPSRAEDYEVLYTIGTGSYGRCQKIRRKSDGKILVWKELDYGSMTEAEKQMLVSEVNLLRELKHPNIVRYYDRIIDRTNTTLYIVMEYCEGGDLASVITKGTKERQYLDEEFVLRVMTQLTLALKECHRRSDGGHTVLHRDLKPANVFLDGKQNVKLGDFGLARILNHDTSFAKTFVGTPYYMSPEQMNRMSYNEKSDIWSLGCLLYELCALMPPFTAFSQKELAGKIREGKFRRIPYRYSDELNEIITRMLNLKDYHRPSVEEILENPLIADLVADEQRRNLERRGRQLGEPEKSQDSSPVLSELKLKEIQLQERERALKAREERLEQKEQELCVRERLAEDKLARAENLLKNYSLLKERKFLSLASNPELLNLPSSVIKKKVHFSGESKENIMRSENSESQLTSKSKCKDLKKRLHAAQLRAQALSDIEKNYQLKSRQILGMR

PI 3-Kinaseδ(h) = PI 3-Kinaseδ(h) (Homo sapiens, UniProt O00329)
Pim-3(h) = Pim-3(h) (Homo sapiens, UniProt Q86V86)
Rsk1(h) = Rsk1(h) (Homo sapiens, UniProt Q15418)
SAPK4(h) = molecular target: T3, SAPK4(h) (Homo sapiens, UniProt O15264)
T3 sequence (O15264 1-365): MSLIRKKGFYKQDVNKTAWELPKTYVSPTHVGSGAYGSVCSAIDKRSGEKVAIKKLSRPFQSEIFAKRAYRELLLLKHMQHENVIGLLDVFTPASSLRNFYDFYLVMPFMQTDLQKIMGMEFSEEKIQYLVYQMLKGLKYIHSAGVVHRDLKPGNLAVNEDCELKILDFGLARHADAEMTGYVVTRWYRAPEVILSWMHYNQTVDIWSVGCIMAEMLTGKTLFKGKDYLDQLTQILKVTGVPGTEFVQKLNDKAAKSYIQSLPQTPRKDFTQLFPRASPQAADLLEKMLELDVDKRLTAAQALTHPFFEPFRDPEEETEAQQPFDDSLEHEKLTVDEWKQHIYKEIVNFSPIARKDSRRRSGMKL

Tie2(Y897S)(h) = Tie2(Y897S)(h) (Homo sapiens, UniProt Q02763, Y897S)

FGFR2(N549H)(h), sequence (P21802 22-821 N549H): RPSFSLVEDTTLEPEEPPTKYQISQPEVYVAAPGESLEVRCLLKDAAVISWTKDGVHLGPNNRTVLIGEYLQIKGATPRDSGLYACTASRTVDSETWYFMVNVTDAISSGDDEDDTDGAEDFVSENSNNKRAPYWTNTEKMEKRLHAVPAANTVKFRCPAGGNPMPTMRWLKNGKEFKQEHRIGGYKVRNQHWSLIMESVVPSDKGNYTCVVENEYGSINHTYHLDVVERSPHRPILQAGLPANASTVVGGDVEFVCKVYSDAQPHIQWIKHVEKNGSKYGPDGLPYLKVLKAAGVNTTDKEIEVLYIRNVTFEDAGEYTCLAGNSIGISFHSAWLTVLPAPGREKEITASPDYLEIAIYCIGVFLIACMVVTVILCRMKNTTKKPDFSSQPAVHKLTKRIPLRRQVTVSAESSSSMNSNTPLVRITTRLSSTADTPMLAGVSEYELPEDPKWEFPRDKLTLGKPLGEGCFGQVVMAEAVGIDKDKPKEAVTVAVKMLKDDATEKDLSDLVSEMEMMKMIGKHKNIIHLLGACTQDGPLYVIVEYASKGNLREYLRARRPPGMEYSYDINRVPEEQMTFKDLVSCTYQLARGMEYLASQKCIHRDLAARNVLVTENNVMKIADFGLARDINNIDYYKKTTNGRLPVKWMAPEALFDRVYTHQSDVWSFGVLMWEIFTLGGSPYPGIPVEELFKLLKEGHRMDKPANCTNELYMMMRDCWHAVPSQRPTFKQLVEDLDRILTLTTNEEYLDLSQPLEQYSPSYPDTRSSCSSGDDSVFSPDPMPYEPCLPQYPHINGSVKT
Abl(m), sequence (P00520 whole entry): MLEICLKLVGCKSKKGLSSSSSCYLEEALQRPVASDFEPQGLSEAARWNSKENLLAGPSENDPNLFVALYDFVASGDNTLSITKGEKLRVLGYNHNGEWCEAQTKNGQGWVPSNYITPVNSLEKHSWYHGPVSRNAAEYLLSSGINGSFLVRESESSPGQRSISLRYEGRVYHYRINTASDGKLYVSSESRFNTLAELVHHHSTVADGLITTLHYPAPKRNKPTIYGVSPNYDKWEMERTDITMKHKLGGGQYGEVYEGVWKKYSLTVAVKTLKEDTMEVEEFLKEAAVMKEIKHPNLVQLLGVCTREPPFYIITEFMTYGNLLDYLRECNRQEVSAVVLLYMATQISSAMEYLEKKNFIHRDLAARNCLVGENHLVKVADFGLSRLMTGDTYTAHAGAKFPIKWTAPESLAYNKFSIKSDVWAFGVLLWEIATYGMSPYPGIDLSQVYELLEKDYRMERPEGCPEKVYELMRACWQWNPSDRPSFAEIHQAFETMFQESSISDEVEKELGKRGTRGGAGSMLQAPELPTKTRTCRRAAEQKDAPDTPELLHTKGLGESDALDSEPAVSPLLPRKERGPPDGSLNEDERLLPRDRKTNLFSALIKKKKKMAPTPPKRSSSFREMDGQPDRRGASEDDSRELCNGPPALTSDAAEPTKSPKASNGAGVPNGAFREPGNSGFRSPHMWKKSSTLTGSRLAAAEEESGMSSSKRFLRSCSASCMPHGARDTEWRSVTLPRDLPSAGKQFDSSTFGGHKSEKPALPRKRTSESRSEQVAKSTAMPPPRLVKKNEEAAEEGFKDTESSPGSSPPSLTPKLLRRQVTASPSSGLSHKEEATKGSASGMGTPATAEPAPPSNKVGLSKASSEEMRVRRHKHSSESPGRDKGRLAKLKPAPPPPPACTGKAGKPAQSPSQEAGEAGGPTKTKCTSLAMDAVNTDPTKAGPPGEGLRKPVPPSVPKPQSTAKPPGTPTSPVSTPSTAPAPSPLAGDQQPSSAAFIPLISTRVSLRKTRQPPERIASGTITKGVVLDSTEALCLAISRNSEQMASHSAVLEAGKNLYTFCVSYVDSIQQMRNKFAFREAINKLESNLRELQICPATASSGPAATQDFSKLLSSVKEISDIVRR
Hck(h), sequence (P08631 whole entry): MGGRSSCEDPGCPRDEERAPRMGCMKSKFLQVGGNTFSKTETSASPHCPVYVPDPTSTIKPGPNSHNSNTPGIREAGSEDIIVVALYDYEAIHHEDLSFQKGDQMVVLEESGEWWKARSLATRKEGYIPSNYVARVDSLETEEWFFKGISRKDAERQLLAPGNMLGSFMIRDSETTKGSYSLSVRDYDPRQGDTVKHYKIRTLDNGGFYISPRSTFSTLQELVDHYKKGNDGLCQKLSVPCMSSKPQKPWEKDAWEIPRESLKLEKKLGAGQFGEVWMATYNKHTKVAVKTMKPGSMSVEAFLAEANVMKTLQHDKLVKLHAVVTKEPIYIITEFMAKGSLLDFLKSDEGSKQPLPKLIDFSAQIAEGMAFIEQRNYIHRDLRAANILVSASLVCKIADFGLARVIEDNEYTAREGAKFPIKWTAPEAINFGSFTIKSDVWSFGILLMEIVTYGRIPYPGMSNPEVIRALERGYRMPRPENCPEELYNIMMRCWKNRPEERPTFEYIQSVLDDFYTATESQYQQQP
cKit(V560G)(h), sequence (P10721 26-976 V560G): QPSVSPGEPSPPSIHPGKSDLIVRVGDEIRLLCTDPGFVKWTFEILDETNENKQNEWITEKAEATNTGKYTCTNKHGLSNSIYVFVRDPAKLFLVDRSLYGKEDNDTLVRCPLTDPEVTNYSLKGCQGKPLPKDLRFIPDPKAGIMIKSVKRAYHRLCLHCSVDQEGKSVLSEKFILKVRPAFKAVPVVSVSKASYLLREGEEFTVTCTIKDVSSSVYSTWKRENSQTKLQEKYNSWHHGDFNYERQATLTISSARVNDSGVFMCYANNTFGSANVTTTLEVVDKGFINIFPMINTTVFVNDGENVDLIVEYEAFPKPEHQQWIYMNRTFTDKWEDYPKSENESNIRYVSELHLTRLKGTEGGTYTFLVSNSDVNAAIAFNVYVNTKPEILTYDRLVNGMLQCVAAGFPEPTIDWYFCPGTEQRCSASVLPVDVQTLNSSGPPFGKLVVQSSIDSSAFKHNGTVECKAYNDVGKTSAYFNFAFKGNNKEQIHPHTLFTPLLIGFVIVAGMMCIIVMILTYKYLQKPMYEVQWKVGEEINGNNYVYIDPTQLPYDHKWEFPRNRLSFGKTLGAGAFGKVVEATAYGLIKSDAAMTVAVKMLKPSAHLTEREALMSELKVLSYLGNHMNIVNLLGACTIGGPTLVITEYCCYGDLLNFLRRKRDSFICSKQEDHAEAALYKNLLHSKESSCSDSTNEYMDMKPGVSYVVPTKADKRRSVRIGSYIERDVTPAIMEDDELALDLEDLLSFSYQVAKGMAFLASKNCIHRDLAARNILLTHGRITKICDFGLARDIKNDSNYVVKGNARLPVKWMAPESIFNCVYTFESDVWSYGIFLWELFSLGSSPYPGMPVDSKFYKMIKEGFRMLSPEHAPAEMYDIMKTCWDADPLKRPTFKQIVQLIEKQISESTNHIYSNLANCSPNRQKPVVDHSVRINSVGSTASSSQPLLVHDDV
Rsk1(h), sequence (Q15418 whole entry): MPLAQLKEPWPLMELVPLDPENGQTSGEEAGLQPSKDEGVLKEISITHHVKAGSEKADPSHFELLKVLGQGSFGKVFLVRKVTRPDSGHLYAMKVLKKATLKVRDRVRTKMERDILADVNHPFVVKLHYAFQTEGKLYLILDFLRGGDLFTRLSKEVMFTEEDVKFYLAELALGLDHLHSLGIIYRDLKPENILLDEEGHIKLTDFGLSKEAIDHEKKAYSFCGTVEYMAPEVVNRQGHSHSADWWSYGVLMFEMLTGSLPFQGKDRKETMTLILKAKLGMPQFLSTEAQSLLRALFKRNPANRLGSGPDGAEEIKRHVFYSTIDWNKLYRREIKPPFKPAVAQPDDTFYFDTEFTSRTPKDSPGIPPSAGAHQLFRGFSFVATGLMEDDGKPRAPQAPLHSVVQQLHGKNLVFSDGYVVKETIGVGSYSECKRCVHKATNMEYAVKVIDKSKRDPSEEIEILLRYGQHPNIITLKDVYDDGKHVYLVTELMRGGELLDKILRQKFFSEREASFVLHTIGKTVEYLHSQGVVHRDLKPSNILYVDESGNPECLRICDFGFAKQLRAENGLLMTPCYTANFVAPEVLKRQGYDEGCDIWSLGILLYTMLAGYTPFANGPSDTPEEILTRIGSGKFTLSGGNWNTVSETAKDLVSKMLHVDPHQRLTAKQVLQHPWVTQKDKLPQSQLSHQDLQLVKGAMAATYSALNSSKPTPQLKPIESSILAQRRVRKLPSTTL

CC(C)CCC(=O)[C@]1(O)C(O)=C(C(=O)C(C)C)C(=O)[C@H]1CCC(C)C [TH2, tetrahydroiso-cohumulone]
kinase inhibition (Abl(m); 1 μg/ml): 98% of control | kinase inhibition (Abl(m); 5 μg/ml): 91% of control | kinase inhibition (Abl(m); 25 μg/ml): 69% of control | kinase inhibition (Abl(m); 50 μg/ml): 32% of control | kinase inhibition (Abl(m); 100 μg/ml): 48% of control | kinase inhibition (CDK3/cyclinE(h); 1 μg/ml): 102% of control | kinase inhibition (CDK3/cyclinE(h); 5 μg/ml): 104% of control | kinase inhibition (CDK3/cyclinE(h); 25 μg/ml): 120% of control | kinase inhibition (CDK3/cyclinE(h); 50 μg/ml): 103% of control | kinase inhibition (CDK3/cyclinE(h); 100 μg/ml): 84% of control | kinase inhibition (cKit(V560G)(h); 1 μg/ml): 112% of control | kinase inhibition (cKit(V560G)(h); 5 μg/ml): 114% of control | kinase inhibition (cKit(V560G)(h); 25 μg/ml): 105% of control | kinase inhibition (cKit(V560G)(h); 50 μg/ml): 90% of control | kinase inhibition (cKit(V560G)(h); 100 μg/ml): 78% of control | kinase inhibition (FGFR2(N549H)(h); 1 μg/ml): 110% of control | kinase inhibition (FGFR2(N549H)(h); 5 μg/ml): 102% of control | kinase inhibition (FGFR2(N549H)(h); 25 μg/ml): 103% of control | kinase inhibition (FGFR2(N549H)(h); 50 μg/ml): 103% of control | kinase inhibition (FGFR2(N549H)(h); 100 μg/ml): 82% of control | kinase inhibition (Hck(h); 1 μg/ml): 103% of control | kinase inhibition (Hck(h); 5 μg/ml): 88% of control | kinase inhibition (Hck(h); 25 μg/ml): 76% of control | kinase inhibition (Hck(h); 50 μg/ml): 62% of control | kinase inhibition (Hck(h); 100 μg/ml): 42% of control | kinase inhibition (MKK4(m); 1 μg/ml): 120% of control | kinase inhibition (MKK4(m); 5 μg/ml): 127% of control | kinase inhibition (MKK4(m); 25 μg/ml): 91% of control | kinase inhibition (MKK4(m); 50 μg/ml): 95% of control | kinase inhibition (MKK4(m); 100 μg/ml): 85% of control | kinase inhibition (MRCKβ(h); 1 μg/ml): 110% of control | kinase inhibition (MRCKβ(h); 5 μg/ml): 114% of control | kinase inhibition (MRCKβ(h); 25 μg/ml): 109% of control | kinase inhibition (MRCKβ(h); 50 μg/ml): 104% of control | kinase inhibition (MRCKβ(h); 100 μg/ml): 99% of control | kinase inhibition (NEK2(h); 1 μg/ml): 106% of control | kinase inhibition (NEK2(h); 5 μg/ml): 109% of control | kinase inhibition (NEK2(h); 25 μg/ml): 105% of control | kinase inhibition (NEK2(h); 50 μg/ml): 102% of control | kinase inhibition (NEK2(h); 100 μg/ml): 72% of control | kinase inhibition (PI 3-Kinaseδ(h); 1 μg/ml): 97% of control | kinase inhibition (PI 3-Kinaseδ(h); 5 μg/ml): 89% of control | kinase inhibition (PI 3-Kinaseδ(h); 25 μg/ml): 62% of control | kinase inhibition (PI 3-Kinaseδ(h); 50 μg/ml): 18% of control | kinase inhibition (PI 3-Kinaseδ(h); 100 μg/ml): 52% of control | kinase inhibition (Pim-3(h); 1 μg/ml): 104% of control | kinase inhibition (Pim-3(h); 5 μg/ml): 104% of control | kinase inhibition (Pim-3(h); 25 μg/ml): 72% of control | kinase inhibition (Pim-3(h); 50 μg/ml): 70% of control | kinase inhibition (Pim-3(h); 100 μg/ml): 64% of control | kinase inhibition (Rsk1(h); 1 μg/ml): 97% of control | kinase inhibition (Rsk1(h); 5 μg/ml): 95% of control | kinase inhibition (Rsk1(h); 25 μg/ml): 65% of control | kinase inhibition (Rsk1(h); 50 μg/ml): 53% of control | kinase inhibition (Rsk1(h); 100 μg/ml): 32% of control | kinase inhibition (SAPK4(h); 1 μg/ml): 114% of control | kinase inhibition (SAPK4(h); 5 μg/ml): 118% of control | kinase inhibition (SAPK4(h); 25 μg/ml): 116% of control | kinase inhibition (SAPK4(h); 50 μg/ml): 121% of control | kinase inhibition (SAPK4(h); 100 μg/ml): 109% of control | kinase inhibition (Tie2(Y897S)(h); 1 μg/ml): 82% of control | kinase inhibition (Tie2(Y897S)(h); 5 μg/ml): 46% of control | kinase inhibition (Tie2(Y897S)(h); 25 μg/ml): 27% of control | kinase inhibition (Tie2(Y897S)(h); 50 μg/ml): 35% of control | kinase inhibition (Tie2(Y897S)(h); 100 μg/ml): 32% of control
